{"source": "patent US20110166112A1", "about": "“METHOD FOR STIMULATING PLATELET PRODUCTION” (Eisai, Inc., priority 2009, published 2011)", "system": "subjects with chronic idiopathic thrombocytopenic purpura (ITP)", "assay": "Phase 2 28-day study of E5501 tablets: safety and tolerability (TEAEs, discontinuations)", "format": "in vivo, human", "details": "for Discontinued study, primary reason Adverse Event or SAE / Discontinued study, primary reason Platelet Count Increase to ≧500 K/mm^3: randomized/safety/FAS; for Blood and lymphatic system disorders / Cardiac disorders / Eye disorders / Gastritis haemorrhagic / Gastrointestinal disorders / Infections and infestations / Myocardial infarction / Nervous system disorders / Pneumonia / Retinal artery occlusion / Thrombocytopenia / Transient ischaemic attack: serious TEAE", "method": "This was a phase 2, multi-center, double-blind, randomized, placebo-controlled, dose-ranging, parallel group study of E5501 tablets, used in the treatment of subjects with chronic idiopathic thrombocytopenic purpura (ITP) refractory to or relapsed after at least one prior ITP therapy. Subjects who met all entry criteria were randomly assigned in a 3:3:3:3:1 ratio to one of the following five treatment groups dosed daily for 28 days: 1) E5501 2.5 mg; 2) E5501 5 mg; 3) E5501 10 mg; 4) E5501 20 mg; or 5) placebo (PBO). Each E5501 dosing group consisted of 15 subjects while the PBO group consisted of 5 subjects. All study subjects were evaluated weekly (days 7, 14, 21 and 28) for safety and efficacy while receiving study treatment, with a final assessment for safety and effectiveness performed 4 weeks after the last study dose (day 56) unless the subject entered the follow-on study. Platelet counts were also measured on day 3 and day 5.\nThe safety and tolerability parameters included adverse events, clinical laboratory parameters, study drug exposure, vital electrocardiograms, concomitant medications, serum pregnancy tests for women of childbearing potential and physical examinations including height, weight, general appearance and recording of vital signs.\nThe populations of interest were defined as follows: • The randomized population included all subjects who were randomized into the study. • The safety population included all randomized subjects who receive at least one dose of study drug and have at least one safety assessment. • The pharmacokinetic (PK) population included all subjects who provided blood sample for analysis of E5501. A subject was included in this population if the subject had at least one blood draw for PK assessment. • The full analysis set (FAS) included all subjects who provided adequate data to derive at least one efficacy assessment. […] The day 28 visit window was defined to be from day 25, to last dose day+1, inclusively; • Other major protocol violations that impacted the platelet endpoint evaluation. Results from Planned Analyses\nSubject Disposition. Sixty four subjects were randomly assigned to treatment in this study. All treated subjects provided adequate efficacy data and therefore were included in the FAS population. The number and percentage of subjects who completed treatment or discontinued prematurely were summarized by treatment groups as shown in Table 1. In addition, the number and percentage of subjects who withdrew were summarized by reason for discontinuation by treatment group. The majority (>85%) of subjects completed the study across all dose groups for the FAS, randomized, and safety populations. Seven subjects who discontinued the study early all were from E5501 dose groups: two subjects in each of 2.5, 10 and 20 mg dose groups and one subject in the 5 mg dose group.", "data": [{"smiles": "O=C(Nc1nc(-c2cc(Cl)cs2)c(N2CCN(C3CCCCC3)CC2)s1)c1cnc(N2CCC(C(=O)O)CC2)c(Cl)c1", "note": "[E5501, 1-(3-chloro-5-{[4-(4-chlorothiophen-2-yl)-5-(4-cyclohexylpiperazin-1-yl)thiazol-2-yl]carbamoyl}pyridine-2-yl)piperidine-4-carboxylic acid]", "values": [{"measurement": "Diarrhoea", "setting": "TEAE, Total E5501", "result": "5 (8.5) n (%)"}, {"measurement": "Ecchymosis", "setting": "TEAE, Total E5501", "result": "3 (5.1) n (%)"}, {"measurement": "Epistaxis", "setting": "TEAE, Total E5501", "result": "9 (15.3) n (%)"}, {"measurement": "Fatigue", "setting": "TEAE, Total E5501", "result": "12 (20.3) n (%)"}, {"measurement": "Headache", "setting": "TEAE, Total E5501", "result": "12 (20.3) n (%)"}, {"measurement": "Migraine", "setting": "TEAE, Total E5501", "result": "2 (3.4) n (%)"}, {"measurement": "Nausea", "setting": "TEAE, Total E5501", "result": "3 (5.1) n (%)"}, {"measurement": "Pain in extremity", "setting": "TEAE, Total E5501", "result": "3 (5.1) n (%)"}, {"measurement": "Petechiae", "setting": "TEAE, Total E5501", "result": "2 (3.4) n (%)"}, {"measurement": "Platelet count increased", "setting": "TEAE, Total E5501", "result": "4 (6.8) n (%)"}, {"measurement": "Upper respiratory tract infection", "setting": "TEAE, Total E5501", "result": "3 (5.1) n (%)"}, {"measurement": "Vomiting", "setting": "TEAE, Total E5501", "result": "4 (6.8) n (%)"}, {"measurement": "Death", "setting": "Total E5501", "result": "0 n (%)"}, {"measurement": "Serious TEAEs (Any Serious TEAE)", "setting": "Total E5501", "result": "3 (5.1) n (%)"}, {"measurement": "TEAE Leading to Study Treatment Dose Interruption", "setting": "Total E5501", "result": "3 (5.1) n (%)"}, {"measurement": "TEAE Leading to Study Treatment Withdrawal", "setting": "Total E5501", "result": "4 (6.8) n (%)"}, {"measurement": "TEAEs", "setting": "Total E5501", "result": "50 (84.7) n (%)"}, {"measurement": "Treatment-Related Serious TEAEs", "setting": "Total E5501", "result": "1 (1.7) n (%)"}, {"measurement": "Treatment-Related TEAEs", "setting": "Total E5501", "result": "35 (59.3) n (%)"}, {"measurement": "TEAE leading to study treatment interruption", "setting": "all E5501", "result": 3, "unit": "cases"}, {"measurement": "TEAE leading to withdrawal of study treatment", "setting": "all E5501", "result": 4, "unit": "cases"}, {"measurement": "subjects with a TEAE leading to study drug withdrawal", "setting": "all E5501", "result": 6.8, "unit": "%"}, {"measurement": "Epistaxis", "setting": "all E5501-treated subjects", "result": 15.3, "unit": "%"}, {"measurement": "Fatigue", "setting": "all E5501-treated subjects", "result": 20.3, "unit": "%"}, {"measurement": "Headache", "setting": "all E5501-treated subjects", "result": 20.3, "unit": "%"}, {"measurement": "subjects who experienced a treatment emergent adverse event (TEAE)", "setting": "all E5501-treated subjects", "result": 84.7, "unit": "%"}, {"measurement": "subjects with TEAE possibly or probably related to E5501", "setting": "all E5501-treated subjects", "result": 59.3, "unit": "%"}, {"measurement": "subjects who withdrew due to an AE", "setting": "one for each of the 5 and 10 mg dose groups", "result": "two"}, {"measurement": "number of serious TEAEs", "setting": "overall", "result": 6}, {"measurement": "Discontinued study, primary reason Adverse Event or SAE", "setting": "2.5 mg", "result": "0 n (%)"}, {"measurement": "Discontinued study, primary reason Platelet Count Increase to ≧500 K/mm^3", "setting": "2.5 mg", "result": "0 n (%)"}, {"measurement": "Discontinued study, primary reason Adverse Event or SAE", "setting": "5 mg", "result": "1 (6.7) n (%)"}, {"measurement": "Discontinued study, primary reason Platelet Count Increase to ≧500 K/mm^3", "setting": "5 mg", "result": "0 n (%)"}, {"measurement": "Discontinued study, primary reason Adverse Event or SAE", "setting": "10 mg", "result": "1 (7.1) n (%)"}, {"measurement": "Discontinued study, primary reason Platelet Count Increase to ≧500 K/mm^3", "setting": "10 mg", "result": "0 n (%)"}, {"measurement": "Discontinued study, primary reason Adverse Event or SAE", "setting": "20 mg", "result": "0 n (%)"}, {"measurement": "Discontinued study, primary reason Platelet Count Increase to ≧500 K/mm^3", "setting": "20 mg", "result": "2 (13.3) n (%)"}, {"measurement": "Discontinued study, primary reason Adverse Event or SAE", "setting": "Total E5501", "result": "2 (3.4) n (%)"}, {"measurement": "Discontinued study, primary reason Platelet Count Increase to ≧500 K/mm^3", "setting": "Total E5501", "result": "2 (3.4) n (%)"}, {"measurement": "Blood and lymphatic system disorders", "setting": "2.5 mg", "result": "1 (6.7) n (%)"}, {"measurement": "Cardiac disorders", "setting": "2.5 mg", "result": "0 n (%)"}, {"measurement": "Eye disorders", "setting": "2.5 mg", "result": "0 n (%)"}, {"measurement": "Gastritis haemorrhagic", "setting": "2.5 mg", "result": "1 (6.7) n (%)"}, {"measurement": "Gastrointestinal disorders", "setting": "2.5 mg", "result": "1 (6.7) n (%)"}, {"measurement": "Infections and infestations", "setting": "2.5 mg", "result": "0 n (%)"}, {"measurement": "Myocardial infarction", "setting": "2.5 mg", "result": "0 n (%)"}, {"measurement": "Nervous system disorders", "setting": "2.5 mg", "result": "0 n (%)"}, {"measurement": "Pneumonia", "setting": "2.5 mg", "result": "0 n (%)"}, {"measurement": "Retinal artery occlusion", "setting": "2.5 mg", "result": "0 n (%)"}, {"measurement": "Thrombocytopenia", "setting": "2.5 mg", "result": "1 (6.7) n (%)"}, {"measurement": "Transient ischaemic attack", "setting": "2.5 mg", "result": "0 n (%)"}, {"measurement": "Blood and lymphatic system disorders", "setting": "5 mg", "result": "0 n (%)"}, {"measurement": "Cardiac disorders", "setting": "5 mg", "result": "0 n (%)"}, {"measurement": "Eye disorders", "setting": "5 mg", "result": "0 n (%)"}, {"measurement": "Gastritis haemorrhagic", "setting": "5 mg", "result": "0 n (%)"}, {"measurement": "Gastrointestinal disorders", "setting": "5 mg", "result": "0 n (%)"}, {"measurement": "Infections and infestations", "setting": "5 mg", "result": "0 n (%)"}, {"measurement": "Myocardial infarction", "setting": "5 mg", "result": "0 n (%)"}, {"measurement": "Nervous system disorders", "setting": "5 mg", "result": "0 n (%)"}, {"measurement": "Pneumonia", "setting": "5 mg", "result": "0 n (%)"}, {"measurement": "Retinal artery occlusion", "setting": "5 mg", "result": "0 n (%)"}, {"measurement": "Thrombocytopenia", "setting": "5 mg", "result": "0 n (%)"}, {"measurement": "Transient ischaemic attack", "setting": "5 mg", "result": "0 n (%)"}, {"measurement": "Blood and lymphatic system disorders", "setting": "10 mg", "result": "0 n (%)"}, {"measurement": "Cardiac disorders", "setting": "10 mg", "result": "1 (7.1) n (%)"}, {"measurement": "Eye disorders", "setting": "10 mg", "result": "1 (7.1) n (%)"}, {"measurement": "Gastritis haemorrhagic", "setting": "10 mg", "result": "0 n (%)"}, {"measurement": "Gastrointestinal disorders", "setting": "10 mg", "result": "0 n (%)"}, {"measurement": "Infections and infestations", "setting": "10 mg", "result": "1 (7.1) n (%)"}, {"measurement": "Myocardial infarction", "setting": "10 mg", "result": "1 (7.1) n (%)"}, {"measurement": "Nervous system disorders", "setting": "10 mg", "result": "1 (7.1) n (%)"}, {"measurement": "Pneumonia", "setting": "10 mg", "result": "1 (7.1) n (%)"}, {"measurement": "Retinal artery occlusion", "setting": "10 mg", "result": "1 (7.1) n (%)"}, {"measurement": "Thrombocytopenia", "setting": "10 mg", "result": "0 n (%)"}, {"measurement": "Transient ischaemic attack", "setting": "10 mg", "result": "1 (7.1) n (%)"}, {"measurement": "Blood and lymphatic system disorders", "setting": "20 mg", "result": "0 n (%)"}, {"measurement": "Cardiac disorders", "setting": "20 mg", "result": "0 n (%)"}, {"measurement": "Eye disorders", "setting": "20 mg", "result": "0 n (%)"}, {"measurement": "Gastritis haemorrhagic", "setting": "20 mg", "result": "0 n (%)"}, {"measurement": "Gastrointestinal disorders", "setting": "20 mg", "result": "0 n (%)"}, {"measurement": "Infections and infestations", "setting": "20 mg", "result": "0 n (%)"}, {"measurement": "Myocardial infarction", "setting": "20 mg", "result": "0 n (%)"}, {"measurement": "Nervous system disorders", "setting": "20 mg", "result": "0 n (%)"}, {"measurement": "Pneumonia", "setting": "20 mg", "result": "0 n (%)"}, {"measurement": "Retinal artery occlusion", "setting": "20 mg", "result": "0 n (%)"}, {"measurement": "Thrombocytopenia", "setting": "20 mg", "result": "0 n (%)"}, {"measurement": "Transient ischaemic attack", "setting": "20 mg", "result": "0 n (%)"}, {"measurement": "Blood and lymphatic system disorders", "setting": "Total E5501", "result": "1 (1.7) n (%)"}, {"measurement": "Cardiac disorders", "setting": "Total E5501", "result": "1 (1.7) n (%)"}, {"measurement": "Eye disorders", "setting": "Total E5501", "result": "1 (1.7) n (%)"}, {"measurement": "Gastritis haemorrhagic", "setting": "Total E5501", "result": "1 (1.7) n (%)"}, {"measurement": "Gastrointestinal disorders", "setting": "Total E5501", "result": "1 (1.7) n (%)"}, {"measurement": "Infections and infestations", "setting": "Total E5501", "result": "1 (1.7) n (%)"}, {"measurement": "Myocardial infarction", "setting": "Total E5501", "result": "1 (1.7) n (%)"}, {"measurement": "Nervous system disorders", "setting": "Total E5501", "result": "1 (1.7) n (%)"}, {"measurement": "Pneumonia", "setting": "Total E5501", "result": "1 (1.7) n (%)"}, {"measurement": "Retinal artery occlusion", "setting": "Total E5501", "result": "1 (1.7) n (%)"}, {"measurement": "Thrombocytopenia", "setting": "Total E5501", "result": "1 (1.7) n (%)"}, {"measurement": "Transient ischaemic attack", "setting": "Total E5501", "result": "1 (1.7) n (%)"}]}]}
